# US20220154156A1, “PROTEINS AND METHODS FOR DISRUPTING BACTERIAL COMMUNICATION” (REGENTS OF THE UNIVERSITY OF MINNESOTA, priority 2019, published 2022)
# Like-named read-outs stand apart in the source and are kept apart here.
# Columns and labels:
# [1] = system: Geobacillus caldoxylosilyticus lactonase GcL, wild type, SEQ ID NO: 1; assay: Lactonase assay (pH indicator, cresol purple) of GcL wt; type: biochemical; conditions: 25° C., pH 8.3; Table 4, substrates without asterisk
# Experimental: (§1) Kinetic measurements. The determination of GcL catalytic efficiency was performed by using a microplate reader (Synergy HTX, BioTek, USA) and the software Gen5.1 over a range of substrates (FIG. 2). The reactions were operate in a 96-well plate at a path length of 5.8 mm for a 200 μl reaction volume at room temperature. The catalytic parameters were achieved by fitting the data to Michaelis-Menten equation with the Graph-Pad Prism 5 software. When, Vmax was not reached, the catalytic efficiency was determined by fitting the linear part of Michaelis-Menten plot to a linear regression using Graph-Pad Prism 5.
# (§2) Lactonase assay. The AHL lactonolysis consisting in the opening of the lactone ring generates a proton, and leads to an acidification of the media. This property allowed the characterization of the lactonases by using a pH indicator assay. To perform the experiment 5 μl of enzyme were added to a solution containing 10 μl of substrates at various concentrations and 185 μl of lactonase buffer (2.5 mM Bicine pH 8.3, 150 mM NaCl, 0.2 mM CoCl2, 0.2 mM cresol purple, 0.5% DMSO). This assay was performed at 25° C. and the time course of the lactones hydrolysis was recorded at 577 nm. The characterization of the enzyme was proceeding against a large panel of AHLs: C4-AHL, C6-AHL, C8-AHL, C10-AHL, 3-oxo-C8-AHL and against γ-Butyrolactone, γ-Heptalactone, γ-Nonalactone, γ-Decanolactone, δ-Valerolactone, δ-Octanolactone, δ-Nonalactone, δ-Decalactone, ε-Caprolactone, ε-Decalactone, Whiskey lactone.
# [2] = system: Geobacillus caldoxylosilyticus GcL (SEQ ID NO: 1) variant GcL 4 (C147S/H178D/L183E/M244A); assay: Lactonase assay of variant GcL 4; type: biochemical; conditions: for catalytic proficiency compared with the wt enzyme: GcL 4 vs GcL wt
# Experimental: as §1, §2
# We determined the ability of these two variants to hydrolyze a wide range of lactones as substrates, using the assay described in the previous chapter. GcL 4 was assayed against substrates C4 AHIL, C8 AHIL, 3-oxo-C8 AHL, 3-oxo-C12 AHL, γ-Butyrolactone, γ-Nonalactone, γ-Decanolactone, δ-Valerolactone, δ-Octanolactone, δ-Decalactone, ε-Caprolactone, ε-Decalactone and Whiskey Lactone, while GcL […] was assayed against C4 AHL, C8 AHL, 3-oxo-C8 AHL, 3-oxo-C12 AHIL, γ-Butyrolactone, γ-Heptalactone, γ-Nonalactone, γ-Decanolactone, δ-Valerolactone, δ-Nonalactone, δ-Decalactone, ε-Caprolactone, ε-Decalactone and Whiskey Lactone (Table 6).
# [3] = system: Geobacillus caldoxylosilyticus GcL (SEQ ID NO: 1) variant GcL 14 (Q41P/S66A/S81A/T91S/R111K/F141/A144T/C147S/V1751/H178D/I182L/L183E/M244A/N245K); assay: Lactonase assay of variant GcL 14; type: biochemical; conditions: for catalytic proficiency compared with the wt enzyme: GcL 14 vs GcL wt
# [4] = system: Geobacillus caldoxylosilyticus lactonase GcL, wild type, SEQ ID NO: 1; conditions: cited from earlier work
# [5] = Table 4, substrates marked *, Data from^17
Compound,Km [1] [µM],kcat [1] [s⁻¹],"Km ([2]; GcL 4, Table 6) [µM]","kcat ([2]; GcL 4, Table 6) [s⁻¹]",catalytic proficiency compared with the wt enzyme [2],"Km ([3]; GcL 14, Table 6) [µM]","kcat ([3]; GcL 14, Table 6) [s⁻¹]",catalytic proficiency compared with the wt enzyme [3],Km ([2]; GcL 4) [µM],Km ([3]; GcL 14) [µM],"Km [4, 5] [µM]","kcat [4, 5] [s⁻¹]","Km ([4]; wt enzyme, C4 AHL marked * (ref 17) in Table 4) [µM]"
CCCCCC1CCC(=O)O1 (stereo not drawn) [γ-Nonalactone],11.6 ± 3.1,18.14 ± 0.9,2.54 ± 0.97,18.3 ± 0.90,similar,9.09 ± 2.2,23.61 ± 1.40,similar,,,,,
CCCC(=O)N[C@H]1CCOC1=O [C4-AHL],,,0.75 ± 0.24,18.25 ± 0.85,,0.92 ± 0.27,15.01 ± 0.61,,~1,~1,229 ± 57,19.06 ± 1.51,~230
CCCC1CCC(=O)O1 (stereo not drawn) [γ-Heptalactone],2.01 ± 0.71,1.77 ± 0.06,,,,2.77 ± 0.53,20.95 ± 0.93,,,,,,
CCCCCCC1CCC(=O)O1 (stereo not drawn) [γ-Decanolactone],7.14 ± 1.03,2.69 ± 0.11,1.31 ± 0.28,22.24 ± 1.10,,0.32 ± 0.14,13.7 ± 0.73,,,,,,
CCCCCC(=O)N[C@H]1CCOC1=O [C6-AHL],,,,,,,,,,,7.97 ± 1.89,8.95 ± 0.48,
CCCCC1CCCC(=O)O1 (stereo not drawn) [δ-Nonalactone],8.05 ± 2.5,2.01 ± 0.14,,,,9.09 ± 2.2,23.61 ± 1.40,,,,,,
CCCCCCCCCC(=O)CC(=O)N[C@H]1CCOC1=O [3-oxo-C12 AHL],,,,,,0.5 ± 0.12,15.88 ± 0.45,,,,,,
CCCCCCCC(=O)N[C@H]1CCOC1=O [C8-AHL],3.12 ± 0.75,1.29 ± 0.04,0.81 ± 0.2,,,1.32 ± 0.34,18.38 ± 0.86,,,,,,
CCCCCCCCCC(=O)NC1CCOC1=O (stereo not drawn) [C10-AHL],,,,,,,,,,,1.45 ± 0.47,5.48 ± 0.37,
CCCCCC1CCCC(=O)O1 (stereo not drawn) [δ-Decalactone],3.13 ± 0.9,4.1 ± 0.18,5.54 ± 0.13,10.28 ± 0.76,similar,0.32 ± 0.14,13.7 ± 0.73,similar,,,,,
O=C1CCCCCO1 [ε-Caprolactone],10.6 ± 3.2,8.79 ± 0.43,1.3 ± 0.49,12.63 ± 0.95,,2.49 ± 0.67,23.74 ± 1.26,,,,,,
CCCCC1CCCCC(=O)O1 (stereo not drawn) [ε-Decalactone],1.05 ± 0.38,1.01 ± 0.04,1.41 ± 0.3,6.3 ± 0.29,similar,7.98 ± 2.47,10.41 ± 0.85,similar,,,,,
CCCCCC(=O)CC(=O)N[C@H]1CCOC1=O [3-oxo-C8-AHL],,,1.09 ± 0.28,76.4 ± 3.87,,0.29 ± 0.08,76.00 ± 4.04,,,,2.19 ± 0.37,9.48 ± 0.35,
O=C1CCCO1 [γ-Butyrolactone],21.1 ± 7.6,2.49 ± 0.15,1.99 ± 0.45,8.42 ± 0.42,,5.9 ± 1.67,9.89 ± 0.75,,,,,,
O=C1CCCCO1 [δ-Valerolactone],5.67 ± 0.94,1.27 ± 0.03,3.13 ± 0.1,11.94 ± 1.03,,1.12 ± 0.12,22.13 ± 0.41,,,,,,
CCCC1CCCC(=O)O1 (stereo not drawn) [δ-Octanolactone],18.3 ± 7,12.58 ± 0.85,1.92 ± 0.54,22.01 ± 1.17,,,,,,,,,
CCCCC1OC(=O)CC1C (stereo not drawn) [Whiskey lactone],0.67 ± 0.21,9.34 ± 0.39,,8.4 ± 0.39,similar,14 ± 3.74,7.98 ± 0.63,similar,,,,,
